Data taken from patent US12673946B2, “Pyrimidin-4(3H)-one derivatives as TRPV4 antagonists” (RaQualia Pharma Inc., priority 2020, dated 2026).
pIC50: −log10 of the molar value.

Biological target: T1, human TRPV4 (Homo sapiens, UniProt Q9HBA0)
T1 construct: host or cells: tetracycline-inducible Flp-In T-REx 293 cells
Test: Hypotonicity-induced Ca2+ influx (Fluo-4, FDSS)
Type: cell-based
How it was run: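 Flp-In T-REx 293 cells with tetracycline-induced human TRPV4, loaded with Fluo-4 for 60 min at 25 °C. Compound added 5 min before hypotonic mannitol/CaCl2 solution. Ca2+ signal recorded for 4.5 min on FDSS.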

[1] = Flp-In T-REx 293 cells expressing human TRPV4, examples listed under heading 'Human IC50<50 nM'
[2] = Flp-In T-REx 293 cells stably expressing human TRPV4, compounds listed by potency bin (<10 nM Tables 96-1/96-2, <3 nM Table 97)

T1 sequence (Q9HBA0 whole entry): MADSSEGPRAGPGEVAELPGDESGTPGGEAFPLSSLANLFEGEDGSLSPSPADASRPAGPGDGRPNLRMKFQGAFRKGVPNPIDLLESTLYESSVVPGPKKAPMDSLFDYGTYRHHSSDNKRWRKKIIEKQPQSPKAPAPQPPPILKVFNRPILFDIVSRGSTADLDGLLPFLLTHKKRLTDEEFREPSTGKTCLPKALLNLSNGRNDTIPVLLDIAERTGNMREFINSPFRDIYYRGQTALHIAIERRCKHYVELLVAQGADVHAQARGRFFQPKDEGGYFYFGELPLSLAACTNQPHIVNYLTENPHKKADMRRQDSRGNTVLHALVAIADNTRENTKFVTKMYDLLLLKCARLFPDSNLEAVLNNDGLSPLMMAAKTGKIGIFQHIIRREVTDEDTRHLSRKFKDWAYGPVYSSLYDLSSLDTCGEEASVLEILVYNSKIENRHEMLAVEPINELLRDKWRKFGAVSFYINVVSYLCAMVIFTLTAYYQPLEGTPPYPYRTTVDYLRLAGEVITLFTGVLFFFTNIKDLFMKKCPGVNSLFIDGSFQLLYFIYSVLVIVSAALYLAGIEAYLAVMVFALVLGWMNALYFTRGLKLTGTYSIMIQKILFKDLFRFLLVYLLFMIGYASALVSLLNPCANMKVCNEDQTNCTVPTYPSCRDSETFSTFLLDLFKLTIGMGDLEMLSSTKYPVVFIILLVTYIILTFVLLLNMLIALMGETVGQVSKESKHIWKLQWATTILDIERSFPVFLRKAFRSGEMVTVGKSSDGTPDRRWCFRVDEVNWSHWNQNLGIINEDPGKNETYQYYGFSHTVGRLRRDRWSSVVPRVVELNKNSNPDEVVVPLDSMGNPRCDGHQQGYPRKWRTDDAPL

Compound | pIC50 [1] | pIC50 [2]
O=C(Cc1cccc(-c2ccc(C(F)(F)F)cc2)c1)N1CCCc2nc(C3(c4cccc(Cl)c4)CC3)[nH]c(=O)c2C1 [17-128] | > 7.30 | > 8.00
CC(C)c1cncc(C2(c3nc4c(c(=O)[nH]3)CN(C(=O)C(O)c3cccc(-c5cccc(C(C)(C)C)c5)c3)CCC4)CC2)c1 (stereo not shown) [55-1] | > 7.30 | > 8.00
O=C([C@H](O)c1cccc(-c2cccc(OCc3ccccc3)c2)c1)N1CCCc2nc(C3(c4cccc(Cl)c4)CC3)[nH]c(=O)c2C1 [50-12] | > 7.30 | > 8.00
O=C([C@H](O)c1cccc(C(F)(F)F)c1)N1CCCc2nc(C3(c4cccc(-c5ccc(CN6CCc7c(Cl)cccc7C6)cc5)c4)CC3)[nH]c(=O)c2C1 [42-96] | > 7.30 | > 8.00
O=C(C(O)c1cccc(Oc2cccc(C(F)(F)F)c2)c1)N1CCCc2nc(C3(c4ccccc4)CC3)[nH]c(=O)c2C1 (stereo not shown) [17-75] | > 7.30 | > 8.52
Cc1ccc(-c2cccc(C3(c4nc5c(c(=O)[nH]4)CN(C(=O)[C@H](O)c4cccc(C(F)(F)F)c4)CCC5)CC3)c2)cc1 [42-57] | > 7.30 | > 8.00
O=C([C@H](O)c1cccc(-c2cccc(OC(F)(F)F)c2)c1)N1CCCc2nc(C3(c4cccc(Cl)c4)CC3)[nH]c(=O)c2C1 [50-3] | > 7.30 | > 8.00
O=C([C@H](O)c1cccc(-c2cccc(OC(F)(F)F)c2)c1)N1CCCc2nc(C3(c4cncc(-c5ccccc5)c4)CC3)[nH]c(=O)c2C1 [56-6] | > 7.30 | > 8.00
O=C([C@H](O)c1cccc(Cl)c1)N1CCc2nc(C3(c4cccc(C5CCCC5)c4)CC3)[nH]c(=O)c2C1 [24-1] | > 7.30 | > 8.00
O=C([C@H](O)c1cccc(C(F)(F)F)c1)N1CCc2nc(C3(c4cncc(C5CCCC5)c4)CC3)[nH]c(=O)c2C1 [28-1] | > 7.30 | > 8.52
O=C(Cc1cccc(-c2cccc(OC(F)(F)F)c2)c1)N1CCCc2nc(C3(c4cccc(Cl)c4)CC3)[nH]c(=O)c2C1 [57-8] | > 7.30 | > 8.00
N#Cc1ccc(-c2cccc(CC(=O)N3CCCc4nc(C5(c6ccccc6)CC5)[nH]c(=O)c4C3)c2)cc1 [17-131] | > 7.30 | 
CC(C)c1cccc(C2(c3nc4c(c(=O)[nH]3)CN(C(=O)[C@H](O)c3cccc(-c5cccc(OC(F)(F)F)c5)c3)CCC4)CC2)c1 [51-3] | > 7.30 | > 8.00
CC(C)(C)c1cccc(-c2cccc(C(O)C(=O)N3CCc4nc(C5(c6ccccc6)CC5)[nH]c(=O)c4C3)n2)c1 (stereo not shown) [48-9] | > 7.30 | 
CC1CCN(c2ccc(-c3cccc(C4(c5nc6c(c(=O)[nH]5)CN(C(=O)[C@H](O)c5cccc(C(F)(F)F)c5)CCC6)CC4)c3)cn2)CC1 [42-10] | > 7.30 | > 8.52
O=C([C@H](O)c1cccc(-c2cccc(Cl)c2)c1)N1CCCc2nc(C3(c4cc(-c5ccccc5)cs4)CC3)[nH]c(=O)c2C1 [54-13] | > 7.30 | > 8.00
N#Cc1cncc(-c2cccc(C3(c4nc5c(c(=O)[nH]4)CN(C(=O)[C@H](O)c4cccc(C(F)(F)F)c4)CCC5)CC3)c2)c1 [42-19] | > 7.30 | > 8.00
O=C([C@H](O)c1cccc(C(F)(F)F)c1)N1CCCc2nc(C3(c4cccc(-c5cccc6ccccc56)c4)CC3)[nH]c(=O)c2C1 [42-49] | > 7.30 | > 8.00
O=C([C@H](O)c1cccc(Cl)c1)N1CCCc2nc(C3(c4cccc(-c5ccc(C(F)(F)F)cc5)c4)CC3)[nH]c(=O)c2C1 [40-8] | > 7.30 | > 8.00
O=C([C@H](O)c1cccc(C(F)(F)F)c1)N1CCCc2nc(C3(c4cc(-c5cnsc5)cs4)CC3)[nH]c(=O)c2C1 [41-3] | > 7.30 | > 8.00
O=C([C@H](O)c1cccc(C(F)(F)F)c1)N1CCc2nc(C3(c4cncc(C5CCCCC5)c4)CC3)[nH]c(=O)c2C1 [28-2] | > 7.30 | > 8.00

Compound | pIC50 [1] | pIC50 [2]
O=C(N1CCc2nc(C3(c4cncc(-c5ccccc5)c4)CC3)[nH]c(=O)c2C1)C(F)(F)c1cccc(C(F)(F)F)c1 [22-6] | > 7.30 | > 8.00
O=C(N1CCCc2nc(C3(c4ccccc4)CC3)[nH]c(=O)c2C1)C(F)(F)c1cccc(-c2cccc(OC(F)(F)F)c2)c1 [58-5] | > 7.30 | > 8.00
N#Cc1ccc(-c2cccc(C3(c4nc5c(c(=O)[nH]4)CN(C(=O)[C@H](O)c4cccc(C(F)(F)F)c4)CCC5)CC3)c2)cn1 [42-55] | > 7.30 | > 8.52
O=C(C(O)c1cccc(-c2cccc(F)c2)c1)N1CCc2nc(C3(c4cccs4)CC3)[nH]c(=O)c2C1 (stereo not shown) [15-11] | > 7.30 | 
O=C([C@H](O)c1cccc(C(F)(F)F)c1)N1CCCc2nc(C3(c4cccc(-c5ccccc5F)c4)CC3)[nH]c(=O)c2C1 [42-56] | > 7.30 | > 8.00
O=C([C@H](O)c1cccc(Cl)c1)N1CCc2nc(C3(c4cc(C5CCOCC5)cs4)CC3)[nH]c(=O)c2C1 [15-15] | > 7.30 | 
O=C(CCc1ccccc1)N1CCC(c2cccc(C3(c4nc5c(c(=O)[nH]4)CN(C(=O)[C@H](O)c4cccc(C(F)(F)F)c4)CCC5)CC3)c2)CC1 [31-11] | > 7.30 | > 8.52
CC(C)c1cncc(C2(c3nc4c(c(=O)[nH]3)CN(C(=O)[C@H](O)c3cccc(-c5cccc(OC(F)(F)F)c5)c3)CCC4)CC2)c1 [55-4] | > 7.30 | > 8.00
Cc1cccc(C(O)C(=O)N2CCCc3nc(C4(c5ccccc5)CC4)[nH]c(=O)c3C2)c1F (stereo not shown) [17-56] | > 7.30 | 
O=C([C@H](O)c1cccc(C(F)(F)F)c1)N1CCc2nc(C3(c4cccs4)CC3)[nH]c(=O)c2C1 [15-18] | > 7.30 | 
O=C([C@H](O)c1cccc(Cl)c1)N1CCc2nc(C3(c4cncc(C5CCCCC5)c4)CC3)[nH]c(=O)c2C1 [25-2] | > 7.30 | > 8.00
O=C([C@H](O)c1cccc(-c2cccc(C3CC3)c2)c1)N1CCCc2nc(C3(c4ccccc4)CC3)[nH]c(=O)c2C1 [49-47] | > 7.30 | > 8.00
O=C([C@H](O)c1cccc(Cl)c1)N1CCCc2nc(C3(c4cccc(-c5cnn(C6CC6)c5)c4)CC3)[nH]c(=O)c2C1 [40-13] | > 7.30 | > 8.00
O=C([C@H](O)c1cccc(-c2cc(Cl)cc(Cl)c2)c1)N1CCCc2nc(C3(c4ccccc4)CC3)[nH]c(=O)c2C1 [49-35] | > 7.30 | > 8.00
O=C([C@H](O)c1cccc(Cl)c1)N1CCc2nc(C3(c4cc(F)cc(F)c4)CC3)[nH]c(=O)c2C1 [3-58] | > 7.30 | 
O=C(C(O)c1cccc(-c2ccc(Cl)cc2)c1)N1CCc2nc(C3(c4cccs4)CC3)[nH]c(=O)c2C1 (stereo not shown) [15-10] | > 7.30 | 
O=C(CN1CCc2ccccc21)N1CC=C(c2cccc(C3(c4nc5c(c(=O)[nH]4)CN(C(=O)[C@H](O)c4cccc(C(F)(F)F)c4)CCC5)CC3)c2)CC1 [42-74] | > 7.30 | > 8.00
O=C([C@H](O)c1cccc(C(F)(F)F)c1)N1CCCc2nc(C3(c4cccc(C5CCC(F)(F)CC5)c4)CC3)[nH]c(=O)c2C1 [31-2] | > 7.30 | > 8.52
CC(C)(C)c1cccc(CC(=O)N2CCCc3nc(C4(c5ccccc5)CC4)[nH]c(=O)c3C2)c1 [17-142] | > 7.30 | 
CC(C)c1csc(C2(c3nc4c(c(=O)[nH]3)CN(C(=O)C(O)c3cccc(C(C)(C)C)c3)CCC4)CC2)c1 (stereo not shown) [18-15] | > 7.30 | > 8.00
